Measurements published in US10350147B2, “Enamel products and methods of use” (The Research Foundation for The State University of New York, priority 2014, dated 2019).
Entries after “also recorded” stand apart in the source; their conditions may differ.

What was measured:
[1] = tested on: oral epithelial keratinocytes of the cell line IMOK; assay: Immunocytochemistry of marker expression in treated IMOK oral epithelial keratinocytes; type: cell-based, mouse
Method: In the studies described below, the ameloblast-like cells originated from oral epithelial keratinocytes. We employed the cell line IMOK, an immortalized oral keratinocyte cell line of mouse origin, which was a gift from Dr. Garrett-Sinha (SUNY-Buffalo; Parikh et al., Arc. Oral Biol. 53:1091-1100, 2008).
To thaw frozen IMOK cells, we removed a cryovial containing 10^6 frozen cells from liquid nitrogen storage, immediately placed it into a 37° C. water bath, and gently swirled the vial. When the cells were thawed, we transferred the vial into a laminar flow hood, and added 10 ml of pre-warmed serum free CnT-02 growth medium (CELLNTEC; FPS 1:1000 added to the medium). We centrifuged the cell suspension (˜1000 rpm for 4 minutes) then checked the vial visually for the presence of a complete pellet. The supernatant was aseptically decanted without disturbing the cell pellet, which we gently resuspended in 7 ml of CnT-02 medium. We transferred the resuspended cells into a T25 flask and incubated it at 37° C. with a humidified atmosphere of 5% CO2 The medium was changed every other day, and when the cells became 90% confluent, we split them 1:5 and plated them in a 12-well plate as follows. After discarding the culture medium from the flask, we washed the cells with PBS then added 2 mL of a pre-warmed dissociation reagent (TrypLE; GIBCO), gently shaking the flask to completely cover the cell layer. We transferred the flask to the incubator (37° C., 5% CO2) for 20 minutes, checking under a microscope every 5 minutes for dissociation of the cells. When ≥90% of the cells detached, we added 8 ml of pre-warmed CnT-02 growth medium (CELLNTEC), dispersing it with a pipette over the cell layer surface several times. The cell suspension was transferred to a 50 ml conical tubed and centrifuged (1000 rpm for 4 minutes). We resuspended the cell pellet in 5 ml of pre-warmed serum free CnT-02 growth medium (CELLNTEC) and split the cells in 1:5 ratios. We diluted the cell suspension plate and pipetted the appropriate volume into new 12-well plates, returning the cells to the incubator (37° C., 5% CO2).
We added the vehicle (4 mM HCl+1 mg/mL BSA) to the control side and TGFβ1 (5 ng/mL) to the experimental side and mixed gently. We changed the medium every other day for 10 days. To fix the cells, we aspirated the medium, washed the cells with PBS then fixed them with 100% methanol for 20 minutes. Following fixation, we washed the fixed cells with PBS (×3) and stored them at 4° C.
Immunocytochemistry General Protocol: (1) wash sample slide in 0.15 M PBS (pH 7.2; 4×5 minutes); (2) incubate in 4% Normal Goat Serum (NGS) for 20 minutes (2 ml of 0.15 M PBS+80 μL NGS); (3) incubate with the primary antibody solution (details below; 90 minutes); (4) wash with […] (3 times×10 minutes); (5) block with 4% NGS in 0.15 M PBS (20 minutes); (6) incubate with the secondary antibody (Biotin-SP-conjugated goat anti-rabbit IgG; 60 minutes); (7) wash with 0.15 M PBS (3 times×10 minutes); (8) prepare and incubate in ABC solution (details below; 60 minutes (5 mL of 0.15 M PBS+ABC solution 600 μL); (9) wash with 0.1 M AI buffer (175 mM sodium acetate and 10 mM imidazole, pH 7.2) for 3 times×10 minutes [14.35 g sodium acetate, 0.68 g imidazole in 1000 mL H2O]; (10) carry out DAB reaction for 5-20 minutes, checking often; and (11) wash for 15 minutes in 0.05 M PBS with 0.04% TritonX-100 to stop the reaction.
The primary antibody solution contains 0.15 M PBS with 0.5% Triton X-100; 4% NGS in [0.15 M PBS with 0.5% TritonX-100; and the primary antibody at a 1:500 dilution (2 mL PBS+0.04% Tx 100+80 μL NGS+4 μL primary antibody). The secondary antibody solution contains 0.15 M PBS with 0.5% Triton X-100 and the secondary antibody at a 1:2500 dilution (Goat anti Rabbit IgG) [2 ml PBS+0.04% Tx 100+0.8 uL GαR]. To prepare the ABC (Avidin Biotin Complex) solution, add 1 drop of A, 1 drop of B, to 500 μL of 0.15 M PBS in an Eppendrof tube. […]

developing tooth buds = conditions: serotonin added to organotypic cultures; reversed with antagonists; cited from earlier work
[2] = IMOK cells before and after TGFβ1 treatment
[3] = IMOK cells, TGFβ1 5 ng/ml, 10 days, immunocytochemistry

Molecule | Oct4 expression [1, 2] | collagen1 expression [1, 2] | amelogenin expression after TGFβ1 treatment alone ([1]; IMOK cells before and after TGFβ1 treatment, no serotonin) | E-cadherin expression [1, 3] | N-cadherin expression [1, 3] | cell morphology after treatment ([1]; IMOK cells, TGFβ1 treatment versus confluent control) | amelogenin induction at 10 μM serotonin ([1]; 10 μM serotonin for 10 days) | amelogenin expression after serotonin treatment ([1]; IMOK cells pre-treated with TGFβ1, then further treated with serotonin) | effect on tooth development (developing tooth buds)
TGFβ1: recombinant human transforming growth factor β1 (R&D system) used as dedifferentiation agent | acquire the expression of Oct4 | lose the expression of collagen1 | do not express amelogenin | lost and reduction in E-cadherin expression and loss of E-cadherin expression | gained; also recorded: increase in N-cadherin expression; also recorded: induced | cells enlarge in size, separate and spread out |  |  | 
NCCc1c[nH]c2ccc(O)cc12 [serotonin, reference compound] |  |  |  |  |  |  | induction of amelogenin | induction of amelogenin expression; also recorded: express amelogenin | accelerated tooth development
